Here are results for two compounds from paper PMC6039436, “Radiobrominated benzimidazole-quinoline derivatives as Platelet-derived growth factor receptor beta (PDGFRβ) imaging probes” (Scientific Reports, 2018).

Molecules are shown by their SMILES.

As a reminder, the IC50 is the concentration that gives 50% inhibition. Read a low IC50 as greater potency.

The target of series [1] is T1, PDGFRβ (BxPC3-luc cells) (Homo sapiens, UniProt P09619).
T1 construct: host or cells: BxPC3-luc cells
The series can be described thus: Competitive binding assay of [^125I]4 with BxPC3-luc cells. As to conditions: displacement of [^125I]4, BxPC3-luc cells, 37 °C, 4 h. As to the method: We investigated the competitive binding of [^125I]4 to BxPC3-luc cells with PDGFRβ ligand, 1, 2, and 3.
BxPC3-luc cells in medium containing 10% FBS and antibiotics were seeded on 24-well plates (50,000 cells/wells) and incubated for 24 h in a 5% CO2 incubator at 37 °C. Nine concentrations of displacing nonradiolabeled ligands (1, 2 and 3) (ranging from 1 pM to 1 mM) and [^125I]4 in medium without FBS were incubated at 37 °C for 4 h. After washing the cells twice using 250 µL of ice-cold PBS, the unbound radioligand was removed. The cells were dissolved using 250 µL of 1 M NaOH and wells were washed with 250 µL of 1 M NaOH. The bound radioactivity was determined using a gamma counter.
All data were statisticaly analyzed using GraphPad 5.0 software (La Jolla, CA, USA) and expressed as mean ± standard deviation (SD). Significance for in vitro blocking experiments was determined by a one-way analysis of variance (ANOVA) followed by Dunnett’s post hoc test compared to the control group. Significance in cell viability assays was determined by ANOVA followed by Tukey’s post hoc test. IC50 values for the binding assay were calculated by nonlinear regression. Significant differences in biodistribution experiments between [^77Br]2 and [^77Br]3 groups were determined using unpaired Student’s t-test. Significance for in vivo blocking studies between control and blocking groups were determined by unpaired Student’s t-test. Results were considered statistically significant at p < 0.05.

Series [2] deals with PDGFRβ overexpressed TR-PCT1 cells. Briefly: Cell viability assay (WST-8 / Cell Counting Kit-8). To be noted: 1–1000 nM, 72 h, 20 ng/mL PDGF-BB, compared with 1. It counts as cell-based, rat. Here is the method: The binding affinity of 2 and 3 to the ATP-binding site in PDGFRβ was evaluated using PDGFRβ overexpressed TR-PCT1 cells. Cells were treated with 1–1000 nM of synthesized ligands, 1, 2, or 3.
Figure 4 Cell viability after exposure 1, 2, and 3 by WST-8 assay. Data were presented as mean ± SD for three samples. Significance was determined using a one-way ANOVA followed by Tukey’s post hoc test (^*p < 0.01, ^**p < 0.001).
The cell viability assay of brominated compounds, 2 and 3, was evaluated as described previously[24],[27]. Namely, TR-PCT1 cells were seeded on 96-well plates (5 × 10^3 cells/well) and cultured at 33 °C in DMEM medium with 20 ng/mL PDGF-BB and 2% FBS in a 5% CO2 incubator. Cells were treated with each compound for 72 h and cell viability was determined by the Cell Counting Kit-8.
A general note: Tetrazolium dyes change colour on reduction, which living cells bring about.

Series [3] concerns RXF393 xenograft. Further details: method as in PMID 23522977. As to conditions: RXF393 xenograft mice; cited from earlier work.

T1 sequence (P09619 33-1106): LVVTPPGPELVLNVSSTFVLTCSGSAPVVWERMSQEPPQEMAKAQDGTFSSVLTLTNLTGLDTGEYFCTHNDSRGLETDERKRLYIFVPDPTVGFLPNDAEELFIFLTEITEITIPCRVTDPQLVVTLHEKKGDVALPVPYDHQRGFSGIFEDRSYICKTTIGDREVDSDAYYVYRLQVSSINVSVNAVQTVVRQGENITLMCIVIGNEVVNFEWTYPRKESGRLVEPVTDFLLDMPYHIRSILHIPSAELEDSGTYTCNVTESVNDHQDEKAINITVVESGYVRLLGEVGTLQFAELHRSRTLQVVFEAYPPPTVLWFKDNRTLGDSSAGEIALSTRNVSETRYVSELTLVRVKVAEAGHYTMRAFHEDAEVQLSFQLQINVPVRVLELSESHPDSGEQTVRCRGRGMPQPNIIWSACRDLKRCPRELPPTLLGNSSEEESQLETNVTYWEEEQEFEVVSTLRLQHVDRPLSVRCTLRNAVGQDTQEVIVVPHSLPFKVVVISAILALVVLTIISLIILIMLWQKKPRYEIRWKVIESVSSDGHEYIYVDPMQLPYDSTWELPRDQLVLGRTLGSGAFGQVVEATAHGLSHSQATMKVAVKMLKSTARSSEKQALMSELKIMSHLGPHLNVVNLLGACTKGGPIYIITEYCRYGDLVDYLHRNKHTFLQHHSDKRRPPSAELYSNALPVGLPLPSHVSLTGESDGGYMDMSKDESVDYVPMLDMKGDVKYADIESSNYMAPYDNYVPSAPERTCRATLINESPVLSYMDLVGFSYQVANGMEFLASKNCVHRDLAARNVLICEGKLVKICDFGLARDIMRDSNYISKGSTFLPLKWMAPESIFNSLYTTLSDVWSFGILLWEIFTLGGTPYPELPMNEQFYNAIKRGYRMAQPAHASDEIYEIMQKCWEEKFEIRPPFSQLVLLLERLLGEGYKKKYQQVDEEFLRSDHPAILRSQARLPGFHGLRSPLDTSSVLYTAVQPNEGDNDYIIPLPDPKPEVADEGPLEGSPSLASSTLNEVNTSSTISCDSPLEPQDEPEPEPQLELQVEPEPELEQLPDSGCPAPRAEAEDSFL

As for `COCCOc1ccc2c(c1)ncn2-c1ccc2c(Br)ccc(N3CCC(N)CC3)c2n1` [Compound 2, 1-{5-bromo-2-[5-(2-methoxyethoxy)-1H-benzo[d]imidazol-1-yl]quinolin-8-yl}piperidin-4-amine], in series [1], the IC50 is 56 ± 13 nM. The “Cell viability of TR-PCT1 cells” value in series [2] is given as “more effective in decreasing the viability of TR-PCT1 cells than 1”.
Consider `CNC(=O)c1cc(Oc2ccc(NC(=O)Nc3ccc(Cl)c(C(F)(F)F)c3)cc2)ccn1` [^11C-labeled sorafenib, sorafenib], for which, in series [3], the Tumor uptake result is “about 2.52 ± 0.33 %ID/g”.
